Here are results for one compound from ChEMBL document CHEMBL5370528, “Synthesis-accessibility-oriented design of c-Jun N-terminal kinase 1 inhibitor” (Eur J Med Chem, 2023).

The structures appear in SMILES notation. Activity calls are given as the source filed them. The calls are words filed in the database; no cut-off is given here.

The inhibition is the relative decrease from the control value, in per cent. Broadly, the CL/F is the apparent clearance, not corrected for the fraction that reaches the circulation. By Tmax is commonly meant the time from dosing to the highest level.

Data set [1] has as its target Dual specificity mitogen-activated protein kinase kinase 2 (Homo sapiens) (UniProt P36507). The data set can be described thus: Inhibition of MAP2K2 (unknown origin) at 1 uM preincubated for 10 mins followed by substrate addition and measured after 60 mins in the presence of ATP by ADP-Glo reagent based luminescence assay relative to control. The following applies: time 70.0 min. For orientation: ADP-Glo turns the ADP formed in a reaction into a luminescent signal.

Data set [2] in a line: Clearance in Sprague-Dawley rat at 75 mg/kg, po by HPLC-UV analysis. The class given is ADME, organism-based. Conditions: in vivo.
Data set [3] is described as follows: Tmax in Sprague-Dawley rat at 75 mg/kg, po by HPLC-UV analysis. Conditions: in vivo. The data set is classed as ADME, organism-based.
In data set [4] the test system is Mus musculus. The data set can be described thus: Anti-fibrotic activity in bleomycin-induced C57BL/6 mouse model of pulmonary fibrosis assessed as reduction in collagen accumulation at 25 to 75 mg/kg, po administered twice a day for 3 weeks by Masson's trichome staining based analysis. Conditions: dose 25-75 mg/kg. The class given is functional, organism-based.

Sequence of Dual specificity mitogen-activated protein kinase kinase 2 (Homo sapiens) (P36507 whole entry): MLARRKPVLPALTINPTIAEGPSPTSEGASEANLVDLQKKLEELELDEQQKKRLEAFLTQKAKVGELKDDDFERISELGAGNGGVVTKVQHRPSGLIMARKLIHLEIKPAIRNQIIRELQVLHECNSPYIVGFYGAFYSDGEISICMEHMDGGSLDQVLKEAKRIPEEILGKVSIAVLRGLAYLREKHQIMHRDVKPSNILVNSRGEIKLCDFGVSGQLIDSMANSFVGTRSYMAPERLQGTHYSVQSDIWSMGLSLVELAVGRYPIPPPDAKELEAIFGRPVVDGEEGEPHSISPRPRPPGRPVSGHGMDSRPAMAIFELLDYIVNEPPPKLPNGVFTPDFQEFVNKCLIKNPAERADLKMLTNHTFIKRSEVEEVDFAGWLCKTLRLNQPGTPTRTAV

`CC(C)(C)CNc1ncc(Br)c(Nc2ccccc2C(N)=O)n1`: the inhibition in data set [1] is 4.96%. Further, in data set [2], the CL/F was 860 mL/min/kg. Further, the Tmax in data set [3] turned out to be 1.38 h. For the same compound, the result in data set [4] was Active.
